# From US5912405A, “Enhancers such as acetosyringone” (Novo Nordisk A/S, priority 1994, dated 1999)
# Target: T1, Coprinus cinereus peroxidase (CiP) (Coprinopsis cinerea, UniProt P28314)
# T1 construct: made in house
# T1 sequence (P28314 21-363): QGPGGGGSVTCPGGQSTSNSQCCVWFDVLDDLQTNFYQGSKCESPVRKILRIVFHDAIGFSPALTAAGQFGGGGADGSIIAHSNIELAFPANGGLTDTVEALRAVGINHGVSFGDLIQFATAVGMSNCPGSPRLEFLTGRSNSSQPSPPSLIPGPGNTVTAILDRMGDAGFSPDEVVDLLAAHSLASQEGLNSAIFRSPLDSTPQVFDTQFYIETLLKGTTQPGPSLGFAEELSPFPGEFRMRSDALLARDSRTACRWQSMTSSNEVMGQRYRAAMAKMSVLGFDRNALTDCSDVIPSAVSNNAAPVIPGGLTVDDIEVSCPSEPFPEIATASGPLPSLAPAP
# Assay: Initial bleaching of Chicago Sky Blue 6B (CSB) with Coprinus cinereus peroxidase and enhancers
# Format: biochemical
# Settings: 5 μM enhancer, 20 μM H2O2, 30° C.
# Experimental: The bleaching rate of Direct Blue 1 (DB1) by purified CiP was determined using the following conditions: […]
# Reagents were mixed in a thermostated cuvette at 30° C. and the bleaching was started by addition of hydrogen peroxide. The bleaching was detected spectrophotometrically at 610 nm, which is the wavelength of the absorption peak of DB1. Bleaching was followed for 1 minute, and the initial reduction in absorbance, --ΔmAbs/minute, was determined.
# Bleaching tests were performed in exactly the same way as described in Example 2 except that instead of using DB1 Chigaco Sky Blue (CSB) (obtainable from Aldrich) was used, and the following enhancers were tested: […]
Compound,"Initial Bleaching of CSB with CiP (pH 8.5, 0.08 mg/l CiP)","Initial Bleaching of CSB with CiP (pH 10.5, 0.16 mg/l CiP)"
CCCCCCOC(=O)c1cc(OC)c(O)c(OC)c1 [hexylsyringate],276 -ΔmAbs/minute,36 -ΔmAbs/minute
CCCCCCCCOC(=O)c1cc(OC)c(O)c(OC)c1 [octylsyringate],192 -ΔmAbs/minute,15 -ΔmAbs/minute
CCCOC(=O)c1cc(OC)c(O)c(OC)c1 [propylsyringate],228 -ΔmAbs/minute,60 -ΔmAbs/minute
CCOC(=O)c1cc(OC)c(O)c(OC)c1 [ethylsyringate],240 -ΔmAbs/minute,52 -ΔmAbs/minute
"CCOC(=O)C=Cc1cc(OC)c(O)c(OC)c1 [ethyl 3-(4-hydroxy-3,5-dimethoxyphenyl)acrylate]",48 -ΔmAbs/minute,48 -ΔmAbs/minute
CCCCOC(=O)c1cc(OC)c(O)c(OC)c1 [butylsyringate],228 -ΔmAbs/minute,48 -ΔmAbs/minute
